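Growth conditions: 96-well plates. Treatment: test compound, 48 hours, 5 concentrations. Analysis: linear interpolation between bracketing concentrations; unreached endpoints set to highest concentration. GI50: concentration for 50% inhibition of growth. TGI marks complete inhibition of growth.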
Columns and labels:
Experiment in all cases: inhibition of tumour cell growth, NCI panel, 48 h
[1] = test system: UO-31 renal
[2] = test system: NCI-H460 lung
[3] = test system: NCI-H23 lung
[4] = test system: HL-60(TB) leukemia
[5] = test system: NCI-H522 lung
[6] = test system: SK-MEL-28 melanoma
[7] = test system: MDA-MB-468 breast
[8] = test system: NCI-H226 lung
[9] = test system: CAKI-1 renal
[10] = test system: PC-3 prostate
[11] = test system: TK-10 renal
[12] = test system: SW-620 colon
[13] = test system: MDA-MB-435
[14] = test system: SF-268 CNS
[15] = test system: OVCAR-4 ovarian
[16] = test system: A549 NSCLC
[17] = test system: DU-145 prostate
[18] = test system: A498 renal
[19] = test system: NCI/ADR-RES ovarian
[20] = test system: HOP-92 NSCLC
[21] = test system: EKVX NSCLC
[22] = test system: SN12C renal
[23] = test system: HCT-15 colon
[24] = test system: RXF 393 renal
[25] = test system: COLO 205 colon
[26] = test system: T-47D breast
[27] = test system: BT-549 breast
[28] = test system: K-562 leukemia
[29] = test system: UACC-257 melanoma
[30] = test system: SNB-75 CNS
[31] = test system: SF-295 CNS
[32] = test system: MOLT-4 leukemia
[33] = test system: SK-OV-3 ovarian
[34] = test system: MALME-3M melanoma
[35] = test system: OVCAR-8 ovarian
[36] = test system: ACHN renal
[37] = test system: HT29 colon
[38] = test system: RPMI-8226 leukemia
[39] = test system: HCT-116 colon
[40] = test system: U251 CNS
[41] = test system: 786-0 renal
[42] = test system: M14 melanoma
[43] = test system: OVCAR-5 ovarian
[44] = test system: HS 578T breast
[45] = test system: IGROV1 ovarian
[46] = test system: OVCAR-3 ovarian
[47] = test system: SF-539 CNS
[48] = test system: MCF7 breast
[49] = test system: SK-MEL-5 melanoma
[50] = test system: LOX IMVI melanoma
[51] = test system: SNB-19 CNS
[52] = test system: SK-MEL-2 melanoma
[53] = test system: HCC-2998 colon
[54] = test system: UACC-62 melanoma
[55] = test system: SR leukemia
[56] = test system: MDA-MB-231 breast
[57] = test system: KM12 colon
[58] = test system: CCRF-CEM leukemia
[59] = test system: HOP-62 NSCLC

O=C(CSc1nnc(-c2ccc3nc(-c4ccc(Cl)cc4)[nH]c3c2)o1)Nc1ccc(Br)cc1
GI50 [1]: 11.8 µM | TGI [1]: 24 µM | GI50 [2]: 2.39 µM | TGI [2]: 5.78 µM | GI50 [3]: 2.4 µM | TGI [3]: 6.17 µM | GI50 [4]: 2.91 µM | TGI [4]: 15.6 µM | GI50 [5]: 4.73 µM | TGI [5]: 19.8 µM | GI50 [6]: 5.04 µM | TGI [6]: 17.5 µM | GI50 [7]: 5.31 µM | TGI [7]: 17.6 µM | GI50 [8]: 3.45 µM | TGI [8]: 16 µM | GI50 [9]: 3.74 µM | TGI [9]: 14.9 µM | GI50 [10]: 3.28 µM | TGI [10]: 16.6 µM | GI50 [11]: 20.2 µM | TGI [11]: 36.8 µM | GI50 [12]: 4.99 µM | TGI [12]: 18.5 µM | GI50 [13]: 2.9 µM | TGI [13]: 9.3 µM | GI50 [14]: 5.66 µM | TGI [14]: 22.3 µM | GI50 [15]: 6.65 µM | TGI [15]: 26.7 µM | GI50 [16]: 3.89 µM | TGI [16]: 19.8 µM | GI50 [17]: 5.83 µM | TGI [17]: 19.1 µM | GI50 [18]: 18.8 µM | TGI [18]: 34.8 µM | GI50 [19]: 4.31 µM | TGI [19]: 15.7 µM | GI50 [20]: 3.55 µM | TGI [20]: 15.7 µM | GI50 [21]: 9.52 µM | TGI [21]: 21.6 µM | GI50 [22]: 2.91 µM | TGI [22]: 11.2 µM | GI50 [23]: 4.18 µM | TGI [23]: 16.3 µM | GI50 [24]: 2.6 µM | TGI [24]: 8.42 µM | GI50 [25]: 12.8 µM | TGI [25]: 27.5 µM | GI50 [26]: 18.3 µM | TGI [26]: 65.8 µM | GI50 [27]: 2.66 µM | TGI [27]: 6.12 µM | GI50 [28]: 3.2 µM | TGI [28]: 15.1 µM | GI50 [29]: 5.65 µM | TGI [29]: 20.5 µM | GI50 [30]: 2.36 µM | TGI [30]: 14.1 µM | GI50 [31]: 6.17 µM | TGI [31]: 19.2 µM | GI50 [32]: 3.19 µM | TGI [32]: 15.4 µM | GI50 [33]: 16.5 µM | TGI [33]: 31.7 µM | GI50 [34]: 3.83 µM | TGI [34]: 15.4 µM | GI50 [35]: 3.9 µM | TGI [35]: 19.4 µM | GI50 [36]: 3.47 µM | TGI [36]: 12.5 µM | GI50 [37]: 5.66 µM | TGI [37]: 27.3 µM | GI50 [38]: 8.26 µM | TGI [38]: 86.3 µM | GI50 [39]: 2.78 µM | TGI [39]: 7.81 µM | GI50 [40]: 2.69 µM | TGI [40]: 6.66 µM | GI50 [41]: 2.13 µM | TGI [41]: 4.76 µM | GI50 [42]: 2.56 µM | TGI [42]: 6.09 µM | GI50 [43]: 14.2 µM | TGI [43]: 29.5 µM | GI50 [44]: 4.09 µM | TGI [44]: 24.7 µM | GI50 [45]: 10.6 µM | TGI [45]: 23 µM | GI50 [46]: 11.3 µM | TGI [46]: 28.2 µM | GI50 [47]: 2.86 µM | TGI [47]: 9.19 µM | GI50 [48]: 3.86 µM | TGI [48]: 17.7 µM | GI50 [49]: 3.69 µM | TGI [49]: 13.6 µM | GI50 [50]: 1.63 µM | TGI [50]: 2.98 µM | GI50 [51]: 4.2 µM | TGI [51]: 14.6 µM | GI50 [52]: 4.74 µM | TGI [52]: 18.4 µM | GI50 [53]: 8.56 µM | TGI [53]: 20.9 µM | GI50 [54]: 4.63 µM | TGI [54]: 16.8 µM | GI50 [55]: 9.89 µM | TGI [55]: > 100 µM | GI50 [56]: 2.37 µM | TGI [56]: 6.07 µM | GI50 [57]: 10.4 µM | TGI [57]: 41.5 µM | GI50 [58]: 3.33 µM | TGI [58]: 20.4 µM | GI50 [59]: 5.96 µM | TGI [59]: 20.2 µM
